# According to article PMC7770263 (The Journal of International Medical Research, 2020):
# Experiments:
# [1] = Pharmacokinetic tests in rats; format: in vivo, Sprague–Dawley rats; conditions: for absorption in vivo (in words) / elimination rate (in words): intravenous injection of the compound preparation
# [2] = Stability test of QC samples in rat plasma; format: in vitro ADME; conditions: for Extracted sample stability, Accuracy / Extracted sample stability, Concentration: extracted rat plasma samples; for Extracted sample stability, Accuracy / Long-term stability, Accuracy: relative error; for stability values (short- and long-term stability) / Short-term stability, Concentration / Long-term stability, Accuracy: rat plasma; for stability values (short- and long-term stability): all QC concentrations, room temperature 24 hours and −20°C 30 days; for Short-term stability, Concentration: room temperature for 24 hours; for Long-term stability, Accuracy: −20°C for 30 days
# [3] = male, Sprague-Dawley, rat, plasma, iv, 144 mg/kg
# [4] = rat, intravenous injection, 144 mg/kg, mean ± standard deviation
# [5] = nominal concentration 300 ng/mL
# [6] = nominal concentration 2400 ng/mL
# [7] = rat plasma, intravenous injection of ticarcillin disodium and clavulanate, 144 mg/kg
# [8] = rat plasma, intravenous injection, 144 mg/kg, mean ± standard deviation
# [9] = nominal concentration 8000 ng/mL
SMILES,absorption in vivo (in words) ([1]; rat),elimination rate (in words) ([1]; rat),"CL(/F) (clearance) [1, 4] [mL/min/kg]","Extracted sample stability, Concentration [2, 6]","Extracted sample stability, Accuracy [2, 6] [%]",stability values (short- and long-term stability) [2],"Short-term stability, Concentration [2, 6] [ng/mL]","Long-term stability, Accuracy [2, 6] [%]","tmax [1, 7] [min]","AUC0-t [1, 8]","AUC0-∞ [1, 8]","Vss obs (observed volume of distribution at steady state) [1, 4] [L/kg]","Extracted sample stability, Concentration ([2]; nominal concentration 30 ng/mL) [ng/mL]","Extracted sample stability, Accuracy ([2]; nominal concentration 30 ng/mL) [%]","Extracted sample stability, Concentration [2, 9] [ng/mL]","Extracted sample stability, Accuracy [2, 9] [%]","Short-term stability, Concentration ([2]; nominal concentration 30 ng/mL) [ng/mL]","Short-term stability, Concentration [2, 9] [ng/mL]","Long-term stability, Accuracy ([2]; nominal concentration 30 ng/mL) [%]","Long-term stability, Accuracy [2, 9] [%]",further results
O=C(O)[C@H]1/C(=C/CO)O[C@@H]2CC(=O)N21 [Clavulanate],rapidly absorbed in vivo,shortest t1/2 and most rapid elimination,5780 ± 3400,2344 ± 98 ng/mL,−2.3,−4.3% to 3.2,2389 ± 118,−1.1,–,–,–,–,–,–,–,–,–,–,–,–,"AUC0-t [1, 3]: 541 ± 254 ng·h/mL; AUC(0-inf) [1, 3]: 559 ± 251 ng·h/mL; Cmax [1, 3]: 1660 ± 667 ng/mL; half-life [1, 3]: 10.2 ± 2.4 min; tmax [1, 3]: 4.98 min; Extracted sample stability, Accuracy ([2]; nominal concentration 80 ng/mL): −2.8%; Extracted sample stability, Concentration [2, 5]: 295 ± 17 ng/mL; Extracted sample stability, Accuracy [2, 5]: −1.7%; Short-term stability, Concentration ([2]; nominal concentration 80 ng/mL): 81.4 ± 0.6 ng/mL; Short-term stability, Concentration [2, 5]: 305 ± 11 ng/mL; Long-term stability, Accuracy ([2]; nominal concentration 80 ng/mL): 3.2%; Long-term stability, Accuracy [2, 5]: −3.7%"
CC1(C)S[C@@H]2[C@H](NC(=O)[C@H](C(=O)O)c3ccsc3)C(=O)N2[C@H]1C(=O)O [Ticarcillin R],rapidly absorbed in vivo,slower,0.733 ± 0.17,2427 ± 16 ng/mL,1.1,–,2349 ± 15,−0.5,4.98,"3,654,298 ± 430,890 ng·h/mL","3,654,643 ± 431,153 ng·h/mL",0.02 ± 0.00,28.6 ± 0.8,−4.7,8291 ± 91,3.6,30.4 ± 0.6,7918 ± 107,−4.3,0.8,–
CC1(C)S[C@@H]2[C@H](NC(=O)[C@@H](C(=O)O)c3ccsc3)C(=O)N2[C@H]1C(=O)O [Ticarcillin S],rapidly absorbed in vivo,–,827.8 ± 63.2,"2,465 ± 12 ng/mL",2.7,–,2457 ± 19,1.3,4.98,3270 ± 262 ng·h/mL,3274 ± 264 ng·h/mL,12.2 ± 0.68,30.8 ± 1.3,2.7,7985 ± 93,−0.2,28.8 ± 0.9,7931 ± 113,−2.3,−0.6,–
CC1(C)S[C@@H]2[C@H](NC(=O)[C@H](C(=O)O)c3ccsc3)C(=O)N2[C@H]1C(=O)O [ticarcillin],–,–,–,–,–,−4.3% to 3.2,–,–,–,–,–,–,–,–,–,–,–,–,–,–,–
